{"source": "patent US20130184223A1", "about": "“METHODS AND COMPOSITIONS RELATED TO MODULATING AUTOPHAGY” (UNIVERSITY OF ROCHESTER, priority 2010, published 2013)", "key": {"[1]": {"tested_on": "YAMC, mp53, Ras and mp53/Ras transformed cells", "test": "Immunoblot of autophagy markers p62 and LC3 after drug treatment", "assay_type": "cell-based, murine", "details": "10 mM 3-methyladenine (3MA) for 24 hrs", "experimental": "To identify if the p62 degradation and LC3 conversion is specifically due to autophagy YAMC, mp53, Ras, and mp53/Ras cells were treated with 3-methyladenine, a specific pharmacologic inhibitor of autophagosome formation (FIG. 4.3).\nYAMC, vector, mp53, Ras, and mp53/Ras cells were cultured for two days at 39 C in RPMI with 10% FBS medium and gentamicin in collagen-I coated 15 cm dishes. […] Protein concentration was quantified using Bradford reagent (BioRad) and a Genesys 1 0UV spectrophotometer (Spectronic Unicam). […] Proteins were detected with primary antibodies at the following dilutions in PBST with 5% milk at 4 C overnight: HA-tagged Plac8 —1:1000 dilution of HA antibody (Roche), —Tubulin—1:1000 of—Tubulin antibody (Santa Cruz), Plac8 —1:500 of Plac8 antibody (PRF&L, Inc.), Lamp2 —1:5000 of Lamp2 antibody (Abcam), Rab7 —1:1000 Rab7 antibody (Sigma), LC3 —1:2000 of LC3B antibody (Sigma), RhoA—1:1000 RhoA antibody (Santa Cruz), Cathepsin D—1:1000 Cathepsin D antibody (Santa Cruz), p62 —1:5000 of p62 antibody (PROGEN), 3× Flag-tagged proteins—1:1000 dilution of 3× Flag antibody and 1:2500 of HRP-conjugated 3× Flag antibody (Sigma), Rab5a—1:1000 dilution of Rab5 antibody (Abcam), phosphop70S6K (Thr389)—1:1000 dilution of phospho-p70S6K (Thr389) antibody (Cell Signaling), p70S6K—1:1000 dilution of p70S6K antibody (Cell Signaling), Atg12—1:250 Atg12 antibody (Sigma). […]"}, "[2]": {"tested_on": "mp53/Ras transformed cells and CAPAN-2 cells", "test": "Immunoblot of p62 and LC3 in cells expressing autophagy modulators", "assay_type": "cell-based", "details": "cells expressing the protein vs vector control", "excerpt": "Thus, the effects of Plac8 KD on both tumor formation and autophagy can be suppressed by constitutive activation of Rab7.\nMoreover, the molecular machinery employed in autophagosomal/lysosomal fusion, such as Rab7, is required for endosomal/lysosomal fusion, which is also required for tumor formation in some cancers.\nTo determine if the Plac8 KD-induced loss of tumor formation is specifically due to a loss of autophagy completion, Atg12, a gene required for autophagosomal formation, was overexpressed in Plac8 KD cells.\nYAMC, vector, mp53, Ras, and mp53/Ras cells were cultured for two days at 39 C in RPMI with 10% FBS medium and gentamicin in collagen-I coated 15 cm dishes. HT-29, CAPAN-2, PANC-1 and Panc 10.05 cells were cultured for two days at 37 C in maintenance media without selective antibiotics on 15 cm dishes. […] Protein concentration was quantified using Bradford reagent (BioRad) and a Genesys 1 0UV spectrophotometer (Spectronic Unicam). […]"}, "[3]": {"tested_on": "mp53/Ras transformed cells", "test": "Lamp2/GFP-LC3 colocalization (autophagosomal/lysosomal fusion), mp53/Ras cells", "assay_type": "cell-based, murine", "details": "nutrient starved in HBSS 15 minutes", "excerpt": "The Plac8 KD dependent accumulation of autophagosomes and autophagosomal biochemical markers can be due to an induction of autophagosome formation (on-rate) or inhibition in autophagosome clearance via autophagosomal/lysosomal fusion (off-rate). […] To explore if Plac8 is required for autophagosomal/lysosmal fusion a GFP-LC3 fusion protein was expressed to label autophagosomes and immunostained for Lamp2, a lysosomal marker. Co-localization of GFP-LC3 and Lamp2 indicates the formation of an autolysosome, or the completion of autophagosomal/lysosomal fusion.\nCells were plated onto collagen-1 coated 22 mm glass coverslips (BD Biosciences) in 6 well plates at 5×10^4 cells per well. […] Cells were analyzed and imaged using a Leica inverted confocal microscope (Lieca).\nGFP-LC3 expressing cells were fixed, stained, mounted, and imaged by the methods described in previous section titled Immunofluorescent staining of cells. To quantify GFP-LC3 punctae images were analyzed using the ImageJ plug-in Watershed Segmentation. […] The resulting image was quantified by measuring the mean green and blue signals per image and dividing the blue signal by the total green signal to get the amount of punctae per total GFP-LC3 expressed in the cell. […] To quantify GFP-LC3 colocalization images were analyzed using the ImageJ plug-in Colocalization Finder. […]"}, "[4]": {"tested_on": "mp53/Ras transformed cells and CAPAN-2 cells", "test": "Immunocompromised mouse tumorigenicity assay, cells expressing autophagy modulators", "assay_type": "in vivo", "details": "cells expressing the protein or shRNA vs vector control; 5×10^5 cells per injection; 4 weeks mp53/Ras, 5 weeks CAPAN-2", "procedure": "To determine whether cooperative up-regulation of autophagy is required for tumorigenesis Atg12, a gene involved in autophagosome formation, was knocked-down using two independent constructs in mp53/RasV12 and Capan-2 cells. In addition, a genetic rescue experiment was performed by introducing a shRNA resistant form of ATG12 into these cell backgrounds to test for ATG12 specificity of the observed effects. Tumor formation was inhibited by Atg12 KD in both mp53/Ras and CAPAN-2 cell lines and was rescued by expression of the exogenous shRNA resistant Atg12 (FIG. 4.5a, 4.5c).\nCells were cultured on 15 cm dishes for two days without selective antibiotics at 39 C for mp53/Ras cells and at 37 C for HT-29, CAPAN-2, PANC-1, and 5 Panc10.05. Cells were plated at the following densities: mp53/Ras—7.5×10^5, HT-29 —1.5×10^6, CAPAN-2 —4×10^6, PANC—4×10^6, and PANC 10.05—2×10^6. Cells were trypsinized, counted and re-suspended in RPMI medium lacking supplements for mp53/Ras, CAPAN-2, and Panc10.05, and DMEM lacking supplements for HT-29 and PANC-1 at a density of 5×10^5/100 ul for mp53/Ras and CAPAN-2 cells, 1.25×10^5/100 ul for HT-29 cells, 5×10^6/100 ul for PANC-1, 2×10^6/100 ul for Panc10.05. […] Tumor volume was measured every week for 4 weeks for mp53/Ras and HT-29 cells, 5 weeks for CAPAN-2 cells, and 6 weeks for PANC-1."}, "[5]": {"tested_on": "lymphoma, colon cancer, lung cancer, and pancreatic cancer cells", "details": "prior studies referred to in the text, cited from earlier work"}}, "note": "Where two headings read alike, the source gives them in different places."}
{"compound": "Cn1cnc(N)c2ncnc1-2", "note": "[3-methyladenine]", "values": [{"measurement": "p62 and LC3 protein levels", "setting": "[1]", "value": "p62 and LC3-I increase"}, {"measurement": "p62 and LC3 protein levels", "setting": "[1]; listed as 3MA", "value": "Accumulation of p62 and LC3"}]}
{"compound": "Rab7 DN: 3× Flag-tagged Rab7 T22N dominant negative mutant, inhibits autophagosomal/lysosomal fusion", "values": [{"measurement": "p62 and LC3 protein levels", "setting": "[2]", "value": "accumulation of p62 and LC3"}, {"measurement": "inhibition of GFP-LC3/Lamp2 colocalization", "setting": "[3]", "value": 74, "unit": "%"}, {"measurement": "tumor formation in nude mice", "setting": "[4]", "value": "inhibition of tumor formation"}]}
{"compound": "CO/C1=C\\C(C)=C\\[C@@H](C)[C@@H](O)[C@@H](C)C/C(C)=C/C=C/[C@H](OC)[C@@H]([C@@H](C)[C@@H](O)[C@H](C)[C@@]2(O)C[C@@H](O)[C@H](C)[C@@H](C(C)C)O2)OC1=O", "note": "[Bafilomycin A1]", "values": [{"measurement": "tumor formation / tumor growth", "setting": "[5]", "value": "inhibits tumor growth"}, {"measurement": "tumor formation / tumor growth", "setting": "[5]; listed as bafilomycin A1", "value": "tumor inhibitory"}, {"measurement": "tumor formation / tumor growth", "setting": "[5]; listed as baflomycin A1", "value": "effective at inhibiting tumor formation"}]}
{"compound": "Rab7 DA: 3× Flag-tagged Rab7 Q67L dominant active mutant, activates autophagosomal/lysosomal fusion", "values": [{"measurement": "tumor formation in nude mice", "setting": "[4]", "value": "inhibits tumor formation"}]}
